Experimental data as given in BindingDB's records for doi:10.1021/acs.jmedchem.3c00203 (University of Oxford, 2023).
pIC50, pKd: −log10 of the molar value.

Legend:
[1] = biological target: T1, Isocitrate dehydrogenase [NADP] cytoplasmic (Homo sapiens, UniProt O75874); experiment: Binding affinity to recombinant IDH1 R132H mutant (unknown origin) expressed in Escherichia coli BL21(DE3) pLysS cells assessed as dissociation constant by ITC assay
Target sequence in this assay (O75874 2-414 R132H limits assumed): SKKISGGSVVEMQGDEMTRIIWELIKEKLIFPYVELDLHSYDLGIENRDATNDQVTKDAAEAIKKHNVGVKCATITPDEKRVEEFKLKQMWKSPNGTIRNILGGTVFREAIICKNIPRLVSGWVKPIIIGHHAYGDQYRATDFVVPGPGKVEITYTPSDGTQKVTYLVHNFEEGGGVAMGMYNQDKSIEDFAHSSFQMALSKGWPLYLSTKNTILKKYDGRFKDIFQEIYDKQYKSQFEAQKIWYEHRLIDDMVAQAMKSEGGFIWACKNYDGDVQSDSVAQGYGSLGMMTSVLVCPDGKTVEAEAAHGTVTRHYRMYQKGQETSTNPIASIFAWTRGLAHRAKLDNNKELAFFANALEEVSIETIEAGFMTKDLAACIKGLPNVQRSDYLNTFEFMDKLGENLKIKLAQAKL

[2] = biological target: T1, Isocitrate dehydrogenase [NADP] cytoplasmic; experiment: Inhibition of recombinant wildtype IDH1 (unknown origin) expressed in Escherichia coli BL21(DE3) pLysS cells using DL-isocitrste as substrate assessed as DL-isocitrate conversion to 2OG incubated for 60 mins in presence of NADPH by spectrophotometric analysis
Target sequence in this assay (O75874 whole entry): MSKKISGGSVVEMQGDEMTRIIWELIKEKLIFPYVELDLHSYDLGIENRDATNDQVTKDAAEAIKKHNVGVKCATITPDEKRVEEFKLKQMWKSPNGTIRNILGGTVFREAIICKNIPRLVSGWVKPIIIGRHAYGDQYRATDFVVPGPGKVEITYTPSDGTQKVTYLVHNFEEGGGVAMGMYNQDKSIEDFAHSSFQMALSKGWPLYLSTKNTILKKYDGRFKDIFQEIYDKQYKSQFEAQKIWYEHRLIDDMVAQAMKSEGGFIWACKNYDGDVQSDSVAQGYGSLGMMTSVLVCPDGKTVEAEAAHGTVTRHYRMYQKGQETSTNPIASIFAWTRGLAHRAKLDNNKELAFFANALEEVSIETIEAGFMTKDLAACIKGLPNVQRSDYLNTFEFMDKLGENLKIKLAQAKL

[3] = biological target: T1, Isocitrate dehydrogenase [NADP] cytoplasmic; experiment: Binding affinity to human recombinant IDH1 expressed in Escherichia coli BL21(DE3) pLysS cells assessed as dissociation constant by non-denaturing mass spectroscopic analysis
Target sequence in this assay (O75874 whole entry): as above

[4] = biological target: T1, Isocitrate dehydrogenase [NADP] cytoplasmic; experiment: Inhibition of recombinant IDH1 R132H mutant (unknown origin) expressed in Escherichia coli BL21(DE3) pLysS cells using 2OG as substrate assessed as 2OG conversion to 2HG incubated for 60 mins in presence of NADPH by spectrophotometric analysis
Target sequence in this assay (O75874 2-414 R132H limits assumed): as the sequence (O75874 2-414 R132H limits assumed) above

[5] = biological target: T1, Isocitrate dehydrogenase [NADP] cytoplasmic; experiment: Binding affinity to human recombinant IDH1 R132H mutant expressed in Escherichia coli BL21(DE3) pLysS cells assessed as dissociation constant by non-denaturing mass spectroscopic analysis
Target sequence in this assay (O75874 2-414 R132H limits assumed): as above

[6] = biological target: T1, Isocitrate dehydrogenase [NADP] cytoplasmic; experiment: Binding affinity to recombinant wildtype IDH1 (unknown origin) expressed in Escherichia coli BL21(DE3) pLysS cells assessed as dissociation constant by ITC assay
Target sequence in this assay (O75874 whole entry): as the sequence (O75874 whole entry) above

[7] = biological target: T1, Isocitrate dehydrogenase [NADP] cytoplasmic; experiment: Binding affinity to recombinant IDH1 R132H mutant (unknown origin) expressed in Escherichia coli BL21(DE3) pLysS cells assessed as dissociation constant by NMR analysis
Target sequence in this assay (O75874 2-414 R132H limits assumed): as the sequence (O75874 2-414 R132H limits assumed) above

[8] = biological target: T1, Isocitrate dehydrogenase [NADP] cytoplasmic; experiment: Binding affinity to recombinant wildtype IDH1 (unknown origin) expressed in Escherichia coli BL21(DE3) pLysS cells assessed as dissociation constant by NMR analysis
Target sequence in this assay (O75874 whole entry): as the sequence (O75874 whole entry) above

pKd [1]: < 3.40
pIC50 [2]: 6.47
pKd [3]: 3.85
pIC50 [4]: 8.09
pKd [5]: 3.85
pKd [6]: < 3.40
pKd [7]: 5.96
pKd [8]: 5.77
SMILES: CC(=O)N1CCN(Cc2ccc([C@H](C)Nc3nccc(N4C(=O)OC[C@@H]4C(C)C)n3)cc2)CC1 [US8957068, 556]
